Measured values as given in patent publication US20250052985A1, “SYSTEM AND METHOD FOR QUANTITATIVE PHASE IMAGING FOR MULTI-PARAMETRIC SCREENING OF TUMOR THERAPY RESPONSE” (UNIVERSITY OF UTAH RESEARCH FOUNDATION, priority 2023, published 2025).

Key:
Type in all cases: cell-based
HCI-038 PDxO cells = experiment: QPI on cells from patient-derived organoid HCI-038 (bone metastasis); conditions: HCI-038
Method: In some embodiments, the QPI microscope system 110 performs QPI on cells from patient-derived organoids and direct-from-patient samples. For example, the electronic controller 155 analyzes data on cells from a set of 5 organoids representing samples collected from two patients, as illustrated by a workflow 3400 in FIG. 24. The workflow 3400 is an experiment workflow illustrating how assays are analyzed by the QPI microscope system 110. In some embodiments, the QPI microscope system 110 images cells for 48 h, and uses an automatic segmentation algorithm, via the electronic controller 155, to identify individual cells from background, as shown in images 3405 and 3410 of FIG. 24. […] The electronic controller 155 determines the mass of each cell by summing the cell mass over the segmented area. In some embodiments, plots of mass over time reveal single cell growth rates, as shown by graph 3415 of FIG. 24. The graph 3415 is a mass vs. time plot showing DMSO treated cells growing cells at a typical location. Cells outlined in green are shown as green on the plot, other growing cells are shown in purple. […] In some embodiments, EC50 measured by the QPI microscope system 110 is strongly concordant with gold standard techniques such as CTG over 27 conditions (e.g., 9 compounds, 3 breast cancer cell lines). […]

HCI-037 PDxO cells = experiment: QPI on cells from patient-derived organoid HCI-037 (primary lesion); conditions: HCI-037
Method: (§1) In some embodiments, the QPI microscope system 110 performs QPI on cells from patient-derived organoids and direct-from-patient samples. For example, the electronic controller 155 analyzes data on cells from a set of 5 organoids representing samples collected from two patients, as illustrated by a workflow 3400 in FIG. 24. The workflow 3400 is an experiment workflow illustrating how assays are analyzed by the QPI microscope system 110. In some embodiments, the QPI microscope system 110 images cells for 48 h, and uses an automatic segmentation algorithm, via the electronic controller 155, to identify individual cells from background, as shown in images 3405 and 3410 of FIG. 24. […] The electronic controller 155 determines the mass of each cell by summing the cell mass over the segmented area. In some embodiments, plots of mass over time reveal single cell growth rates, as shown by graph 3415 of FIG. 24. The graph 3415 is a mass vs. time plot showing DMSO treated cells growing cells at a typical location. Cells outlined in green are shown as green on the plot, other growing cells are shown in purple. The electronic controller 155 determine the specific growth rate (SGR) by fitting a line to time-series mass measurements and normalizing by an initial mass predicted by the fit to account for the effect of cell size on growth rate. The electronic controller 155 fits SGR as a function of dose to a sigmoidal dose response curve using a 3-parameter Hill model to extract dose response measurements, as shown by graph 3420 of FIG. 24. […] In some embodiments, EC50 measured by the QPI microscope system 110 is strongly concordant with gold standard techniques such as CTG over 27 conditions (e.g., 9 compounds, 3 breast cancer cell lines). […] As with cell line data, QPI data on cells from PDxO resolves differences in temporal dynamics of response to therapy, as shown in graph 3425 of FIG. 24. […] In some embodiments, the electronic controller 155 is configured to determine a drug response of each of the plurality of treatment samples from patient derived organoids.
The graphs 3500 includes graph A of the graphs 3500 showing normalized mass vs. time for HCI-037 (primary), HCI-038 (metastatic), and HCI-039 (pleural effusion) showing reduction in growth as concentration increases. Graphs B, C, D, and E of the graphs 3500 show dose response plots showing the differential response between different disease models. Graphs F, G, H, and I of the graphs 3500 show Hellinger distance vs. time plots showing the time of response for the different models treated with various therapies. In some embodiments, HCI-037, HCI-038, and HCI-039, PDxO models are used that are derived from primary lesion, bone metastasis, and pleural effusion, respectively, at different time points from a single patient during the course of treatment and progressive disease. In some embodiments, the electronic controller 155 is configured to determine a difference drug response from patient derived organoids. In some embodiments, the patient derived organoids are tumor organoids.

HCI-039 PDxO cells = experiment: QPI on cells from patient-derived organoid HCI-039 (pleural effusion); conditions: HCI-039
Method: as §1, with “organoids. […]” for “organoids.”

Compound: CC[C@H](NC(=O)[C@H](C)NC)C(=O)N1C[C@@H](O)C[C@H]1Cc1c(-c2[nH]c3cc(F)ccc3c2C[C@@H]2C[C@H](O)CN2C(=O)[C@H](CC)NC(=O)[C@H](C)NC)[nH]c2cc(F)ccc12 [birinapant]
- response (HCI-038 PDxO cells): no response
- EC50 compared with HCI-039 (HCI-037 PDxO cells): similar
- depth of response compared with HCI-039 (HCI-037 PDxO cells): much greater depth of response
- EC50 compared with HCI-037 (HCI-039 PDxO cells): similar
- time of response compared with HCI-037 (HCI-039 PDxO cells): much faster time of response
